Measurements taken from patent EP0354323A2, “Antidiabetic phosphates” (AMERICAN CYANAMID COMPANY, priority 1988, dated 1990).
Structures can show the parent of a compound that is named as a salt. Where two headings read alike, the source gives them in different places.

Key:
Assay type in all cases: biochemical
[1] = biological target: T1, purified rat liver 6-phosphofructo-1-kinase (Rattus norvegicus, UniProt P30835); experiment: Stimulation of 6-phosphofructo-1-kinase (PFK), aldolase-coupled spectrophotometric assay; details: stimulation of enzyme; pH 7.3, 30°C, 1 mM ATP, reaction initiated with 0.2 mM fructose-6-phosphate; read-out: PFK ED₅₀
T1 construct: 0.1U of purified rat liver 6-phosphofructo-1-kinase; from tissue; host or cells: rat liver
T1 sequence (P30835 2-780 limits assumed): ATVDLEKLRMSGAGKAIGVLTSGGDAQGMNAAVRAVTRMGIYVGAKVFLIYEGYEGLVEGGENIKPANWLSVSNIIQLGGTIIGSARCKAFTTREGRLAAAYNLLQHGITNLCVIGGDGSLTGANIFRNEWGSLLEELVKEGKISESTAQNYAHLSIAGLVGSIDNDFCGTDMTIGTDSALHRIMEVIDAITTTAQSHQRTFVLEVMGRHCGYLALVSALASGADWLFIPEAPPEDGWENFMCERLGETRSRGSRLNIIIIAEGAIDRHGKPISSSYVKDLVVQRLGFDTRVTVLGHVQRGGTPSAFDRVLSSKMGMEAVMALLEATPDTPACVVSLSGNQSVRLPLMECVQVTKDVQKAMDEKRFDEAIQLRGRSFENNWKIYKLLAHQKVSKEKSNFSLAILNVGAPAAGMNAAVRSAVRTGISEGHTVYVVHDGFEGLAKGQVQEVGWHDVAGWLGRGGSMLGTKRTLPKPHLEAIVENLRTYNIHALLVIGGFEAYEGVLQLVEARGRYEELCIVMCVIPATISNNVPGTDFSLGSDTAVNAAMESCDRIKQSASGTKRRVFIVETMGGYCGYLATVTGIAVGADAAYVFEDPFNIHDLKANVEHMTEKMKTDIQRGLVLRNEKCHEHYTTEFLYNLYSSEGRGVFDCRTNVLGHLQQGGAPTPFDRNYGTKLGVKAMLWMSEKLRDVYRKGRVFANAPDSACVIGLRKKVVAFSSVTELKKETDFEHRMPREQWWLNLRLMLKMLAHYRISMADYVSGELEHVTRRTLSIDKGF
Procedure: (§1) The novel compounds of this invention were tested for their ability to stimulate the enzyme 6-phosphofructo-1-kinase ("PFK") and for their ability to inhibit the enzyme fructose-1,6-bisphosphatase ("FBP") using the procedures described below.
Effects on the activity of PFK were determined using an aldolase-coupled, spectrophotometric assay. The assay mixture contained: 50 mM N-tris(hydroxymethyl)methyl-2-aminoethanesulfonic acid, hydrochloride ("TES-HCl", pH 7.3); 1mM ethylenediaminetetraacetic acid ("EDTA"); 6 mM magnesium chloride; 2.5 mM dithiothreitol; 0.165 mM nicotinamide adenine dinucleotide ("NADH"); 1mM adenosine triphosphate ("ATP"); 0.04U aldolase; 0.4U triose phosphate isomerase; 1.5U alpha-glycerolphosphate dehydrogenase; 0.1U of purified rat liver 6-phosphofructo-1-kinase; and various concentrations of the test compound, all in a final volume of 1 ml. The mixture was preincubated for 3 minutes at 30°C and then the reaction was initiated with 0.2 mM fructose-6-phosphate. The rate of decrease in absorbance at 340 nm was measured at 30°C with a recording spectrophotometer.

purified rat liver FBP = biological target: T2, purified rat liver FBP (Rattus norvegicus, UniProt P19112); experiment: Inhibition of fructose-1,6-bisphosphatase (FBP), spectrophotometric assay
T2 construct: 0.02U of purified rat liver FBP; from tissue; host or cells: rat liver
T2 sequence (P19112 2-363 limits assumed): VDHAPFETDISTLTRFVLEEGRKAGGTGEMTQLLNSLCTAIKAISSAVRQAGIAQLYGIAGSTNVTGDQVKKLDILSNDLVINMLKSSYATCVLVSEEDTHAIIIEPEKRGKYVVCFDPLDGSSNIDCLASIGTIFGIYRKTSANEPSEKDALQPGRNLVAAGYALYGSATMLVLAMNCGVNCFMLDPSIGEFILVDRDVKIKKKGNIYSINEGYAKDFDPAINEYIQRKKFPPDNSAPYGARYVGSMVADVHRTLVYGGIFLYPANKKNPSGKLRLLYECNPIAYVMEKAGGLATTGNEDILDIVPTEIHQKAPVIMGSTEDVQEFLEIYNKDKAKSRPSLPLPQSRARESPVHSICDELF
Procedure: as §1
Effects on the activity of FBP were determined using a spectrophotometric assay. The assay mixture contained: 100 mM tris(hydroxymethyl)aminomethane, hydrochloride ("TRIS-HCl", pH 7.4); 2.5 mM beta-mercaptoethanol; 2 mM magnesium chloride; 0.05 mM EDTA; 0.2 mM nicotinamide adenine dinucleotide phosphate ("NADP"); 10 U phosphoglucose isomerase; 5 U glucose-6-phosphate dehydrogenase; 0.02U of purified rat liver FBP; and various concentrations of the test compound, all in a final volume of 1 ml. The mixture was preincubated for 3 minutes at 30°C and then the reaction was initiated with 0.02 mM fructose-1,6-bisphosphate. The rate of increase in absorbance at 340 nm was measured at 30°C with a recording spectrophotometer.

[2] = biological target: T3, partially purified potato tuber 6-phosphofructo-1-kinase (Solanum tuberosum, UniProt P21342+P21343); experiment: Stimulation of pyrophosphate-dependent 6-phosphofructo-1-kinase (PPi-PFK), aldolase-coupled spectrophotometric assay; details: stimulation of enzyme; pH 8.0, 30°C, 1 mM fructose-6-phosphate, reaction initiated with 0.5 mM sodium pyrophosphate; read-out: PPi-PFK ED₅₀
T3 construct: 0.1U of partially purified potato tuber; from tissue; host or cells: potato tuber
T3 sequence (P21343 1-569): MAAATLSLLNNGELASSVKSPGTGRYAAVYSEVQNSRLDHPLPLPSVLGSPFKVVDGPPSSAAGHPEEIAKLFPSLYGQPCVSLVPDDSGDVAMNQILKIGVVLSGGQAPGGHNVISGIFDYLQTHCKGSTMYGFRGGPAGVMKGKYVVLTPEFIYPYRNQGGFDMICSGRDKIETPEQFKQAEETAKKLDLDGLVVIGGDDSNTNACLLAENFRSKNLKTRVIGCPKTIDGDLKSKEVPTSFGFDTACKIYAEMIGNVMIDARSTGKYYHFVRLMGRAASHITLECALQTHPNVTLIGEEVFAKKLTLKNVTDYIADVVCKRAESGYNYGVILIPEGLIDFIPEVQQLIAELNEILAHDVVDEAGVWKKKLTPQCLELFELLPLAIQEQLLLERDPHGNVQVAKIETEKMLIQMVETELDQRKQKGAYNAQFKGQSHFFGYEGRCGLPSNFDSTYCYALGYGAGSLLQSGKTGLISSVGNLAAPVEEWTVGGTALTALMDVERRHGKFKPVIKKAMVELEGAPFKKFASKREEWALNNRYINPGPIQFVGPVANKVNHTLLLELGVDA
T3 sequence (P21342 1-616): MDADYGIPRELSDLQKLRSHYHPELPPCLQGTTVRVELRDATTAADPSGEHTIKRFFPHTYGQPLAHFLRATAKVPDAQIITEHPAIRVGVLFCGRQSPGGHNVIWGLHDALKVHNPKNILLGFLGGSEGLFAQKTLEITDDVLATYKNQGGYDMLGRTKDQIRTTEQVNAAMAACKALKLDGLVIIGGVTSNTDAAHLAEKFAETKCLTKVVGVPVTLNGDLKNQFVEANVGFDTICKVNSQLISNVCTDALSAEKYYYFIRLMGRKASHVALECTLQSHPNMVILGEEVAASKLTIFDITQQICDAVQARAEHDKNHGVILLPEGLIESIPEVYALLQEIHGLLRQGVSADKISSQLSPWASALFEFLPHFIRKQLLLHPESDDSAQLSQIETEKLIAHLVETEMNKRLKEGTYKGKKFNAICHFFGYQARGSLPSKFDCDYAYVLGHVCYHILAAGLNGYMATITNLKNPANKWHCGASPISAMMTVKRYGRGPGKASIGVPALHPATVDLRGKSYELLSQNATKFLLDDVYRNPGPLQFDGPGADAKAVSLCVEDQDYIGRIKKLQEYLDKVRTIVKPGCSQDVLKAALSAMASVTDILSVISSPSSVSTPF
Procedure: The novel compounds of this invention were also tested for their ability to stimulate the enzyme pyrophosphate-dependent 6-phosphofructo-1-kinase ("PPi-PFK"), a growth regulator in plants, using the procedures described below.
Effects on the activity of PPi-PFK were determined using an aldolase-coupled, spectrophotometric assay. The assay mixture contained: 50 mM N-tris(hydroxymethyl)methyl-2-aminoethanesulfonic acid, hydrochloride ("TES-HCl", pH 8.0); 1mM ethylenediaminetetraacetic acid ("EDTA"); 6 mM magnesium chloride; 2.5 mM dithiothreitol; 0.165 mM nicotinamide adenine dinucleotide ("NADH"); 1mM fructose-6-phosphate; 0.04U aldolase; 0.4U triose phosphate isomerase; 1.5U alpha-glycerolphosphate dehydrogenase; 0.1U of partially purified potato tuber 6-phosphofructo-1-kinase; and various concentrations of the test compound, all in a final volume of 1 ml. The mixture was preincubated for 3 minutes at 30°C and then the reaction was initiated with 0.5 mM sodium pyrophosphate. The rate of decrease in absorbance at 340 nm was measured at 30°C with a recording spectrophotometer.

[3] = inhibition of enzyme, pH 7.4, 30°C, reaction initiated with 0.02 mM fructose-1,6-bisphosphate, read-out: FBP IC₅₀

| SMILES | EC50 [1] | IC50 (purified rat liver FBP; [3]) | EC50 [2] | IC50 (purified rat liver FBP) |
| --- | --- | --- | --- | --- |
| O=P(O)(O)OC[C@H]1O[C@](OP(=O)(O)O)(C(F)F)[C@@H](O)[C@@H]1O [1-Deoxy-1,1-difluoro-D-fructofuranose, 2,6-bis (dihydrogen phosphate), β-anomer, disodium salt] | 0.15 µM | > 800 µM | – | – |
| O=P(O)(O)OC[C@H]1O[C@@](OP(=O)(O)O)(C(F)F)[C@@H](O)[C@@H]1O [1-Deoxy-1,1-difluoro-D-fructofuranose, 2,6-bis(dihydrogen phosphate), α-anomer, disodium salt] | 0.05 µM | > 800 µM | – | – |
| O=P(O)(O)OC[C@H]1O[C@@](OP(=O)(O)O)(C(F)F)[C@@H](O)[C@@H]1O [1-Deoxy-1,1-difluoro-D-fructofuranose, 2,6-bis(dihydrogen phosphate), α-anomer, tetrasodium salt] | – | – | 15 µM | – |
| O=P(O)(O)OC[C@H]1O[C@](OP(=O)(O)O)(C(F)F)[C@@H](O)[C@@H]1O [1-Deoxy-1,1-difluoro-D-fructofuranose, 2,6-bis(dihydrogen phosphate), β-anomer, tetrasodium salt] | – | – | 0.3 µM | – |
| O=P(O)(O)OC[C@H]1OC(O)(C(F)F)[C@@H](O)[C@@H]1O (stereo partly drawn) [1-Deoxy-1,1-difluoro-D-fructofuranose, 6-(dihydrogen phosphate), sodium salt] | 300 µM | 450 µM | 1000 µM | – |
| O=P(O)(O)OC[C@H]1O[C@@](CO)(COP(=O)(O)O)[C@@H](O)[C@@H]1O [2,5-Anhydro-2-C-(hydroxymethyl)-D-glucitol, 1,6-bis(dihydrogen phosphate)] | 6.3 µM | – | 0.4 µM | – |
| O=P(O)(O)OC[C@H]1O[C@](CO)(COP(=O)(O)O)[C@@H](O)[C@@H]1O [2,5-Anhydro-2-C-[(phosphonooxy)methyl]-D-glucitol, 6-(dihydrogen phosphate)] | 2 µM | – | 6.6 µM | – |
| O=P(O)(O)OC[C@@H]1O[C@H](COP(=O)(O)O)[C@@H](O)[C@@H]1O [2,5-Anhydro-D-glucitol, 1,6-bis(dihydrogen phosphate)] | 2.2 µM | 32 µM | – | – |
| O=P(O)(O)OC[C@@H](O)[C@H]1O[C@H](COP(=O)(O)O)[C@@H](O)[C@@H]1O [2,5-Anhydro-D-glycero-D-manno-heptitol, 1,7-bis(dihydrogen phosphate)] | 2.1 µM | – | – | – |
| O=P(O)(O)OC[C@H]1O[C@H](COP(=O)(O)O)[C@@H](O)[C@@H]1O [2,5-Anhydro-D-mannitol, 1,6-bis(dihydrogen phosphate)] | 0.26 µM | – | – | 2 µM |
| O=P(O)(O)OCC[C@@]1(CO)O[C@H](COP(=O)(O)O)[C@@H](O)[C@@H]1O [3,6-Anhydro-2-deoxy-3-C-(hydroxymethyl)-D-manno-hepitol, 1,7-bis(dihydrogen phosphate)] | 7.2 µM | 100 µM | – | – |
| O=P(O)(O)OCC[C@@H]1O[C@H](COP(=O)(O)O)[C@@H](O)[C@@H]1O [3,6-Anhydro-2-deoxy-D-gluco-heptitol, 1,7-bis(dihydrogen phosphate)] | 4 µM | 230 µM | – | – |
| O=P(O)(O)OCC[C@H]1O[C@H](COP(=O)(O)O)[C@@H](O)[C@@H]1O [3,6-Anhydro-2-deoxy-D-manno-heptitol, 1,7-bis(dihydrogen phosphate)] | 0.56 µM | 50 µM | – | – |
| O=P(O)(O)OCCCC1O[C@H](COP(=O)(O)O)[C@@H](O)[C@@H]1O (stereo partly drawn) [4,7-Anhydro-2,3-dideoxy-D-gluco-octitol, 1,8-bis(dihydrogen phosphate), and 4,7-Anhydro-2,3-dideoxy-D-manno-octitol, 1,8-bis(dihydrogen phosphate)] | 12 µM | – | – | – |
| O=P(O)(O)OC[C@H]1O[C@@](CO)(OP(=O)(O)O)[C@@H](O)[C@@H]1O [Beta-D-fructose-2,6-bisphosphate, reference compound] | 0.02 µM | 3 µM | 0.004 µM | – |
